“And” between values parts separate entries of the source, which are not always exact repeats. Equal values may be shown once.
Key:
[1] = test system: BT-474; assay: drug sensitivity score (DSS), CellTiter-Glo (DSS (AUC-based score)); higher = stronger drug effect (viability inhibition or cytotoxicity); extreme values may be limits of the assay; conditions: incubation time: 72 h
Outline: (§1)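 Each compound occupied 5 concentrations in 10-fold steps over its own 10,000-fold range in 384-well plates, into which breast cancer cell lines were seeded as 20 µl suspension. Following 72 h of incubation, CellTox Green fluorescence (485/520 nm) was measured, and CellTiter-Glo luminescence was measured after 10 min at room temperature. Plates were individually normalised to 0.1 % DMSO and a positive kill control. From the area under the fitted dose-response curve, a drug sensitivity score was calculated.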

[2] = test system: BT-549; assay: as above; conditions: incubation time: 72 h
Outline: as §1

[3] = test system: CAL-120; assay: as above; conditions: incubation time: 72 h
Outline: as §1

[4] = test system: CAL-148; assay: as above; conditions: incubation time: 72 h
Outline: as §1

[5] = test system: CAL-51; assay: as above; conditions: incubation time: 72 h
Outline: as §1

[6] = test system: CAL-85-1; assay: as above; conditions: incubation time: 72 h
Outline: as §1

[7] = test system: DU-4475; assay: as above; conditions: incubation time: 72 h
Outline: as §1

[8] = test system: HCC1143; assay: as above; conditions: incubation time: 72 h
Outline: as §1

[9] = test system: HCC1599; assay: as above; conditions: incubation time: 72 h
Outline: as §1

[10] = test system: HCC1937; assay: as above; conditions: incubation time: 72 h
Outline: as §1

[11] = test system: HDQ-P1; assay: as above; conditions: incubation time: 72 h
Outline: as §1

[12] = test system: Hs578T; assay: as above; conditions: incubation time: 72 h
Outline: as §1

[13] = test system: MCF-10A; assay: as above; conditions: incubation time: 72 h
Outline: as §1

[14] = test system: MDA-MB-231; assay: as above; conditions: incubation time: 72 h
Outline: as §1

[15] = test system: MDA-MB-436; assay: as above; conditions: incubation time: 72 h
Outline: as §1

[16] = test system: MDA-MB-453; assay: as above; conditions: incubation time: 72 h
Outline: as §1

[17] = test system: MDA-MB-468; assay: as above; conditions: incubation time: 72 h
Outline: as §1

[18] = test system: MFM-223; assay: as above; conditions: incubation time: 72 h
Outline: as §1

[19] = test system: SK-BR-3; assay: as above; conditions: incubation time: 72 h
Outline: as §1

[20] = test system: CAL-51; assay: normalised viability (% of control), CellTiter-Blue; higher = more viable cells (about 100 = DMSO control); conditions: 10 nM; incubation time: 72 h
Description: (§2)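 DSRT, CellTiter-Blue viability, 72 h incubation. Signal is normalised to DMSO and benzethonium chloride controls. Value is the normalised response at dose 3.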

[21] = test system: MDA-MB-436; assay: as above; conditions: 100 nM; incubation time: 72 h
Description: as §2

[22] = test system: MFM-223; assay: as above; conditions: 100 nM; incubation time: 72 h
Description: as §2

[23] = test system: BT-474; assay: normalised viability (% of control), CellTiter-Blue; higher = more viable cells (about 100 = DMSO control); conditions: incubation time: 72 h
Outline: (§3)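 Each value is normalised viability at a single listed concentration of the series. Breast cancer cell lines in 384-well plates were incubated 72 h with compound and read by CellTiter-Blue fluorescence at 560/590 nm, with vehicle set to 100 and a positive kill control to 0 on every plate.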

[24] = test system: CAL-120; assay: as above; conditions: incubation time: 72 h
Outline: as §3

[25] = test system: MDA-MB-231; assay: as above; conditions: incubation time: 72 h
Outline: as §3

Row | Structure (SMILES) | drug sensitivity score [1] | drug sensitivity score [2] | drug sensitivity score [3] | drug sensitivity score [4] | drug sensitivity score [5] | drug sensitivity score [6] | drug sensitivity score [7] | drug sensitivity score [8] | drug sensitivity score [9] | drug sensitivity score [10] | drug sensitivity score [11] | drug sensitivity score [12] | drug sensitivity score [13] | drug sensitivity score [14] | drug sensitivity score [15] | drug sensitivity score [16] | drug sensitivity score [17] | drug sensitivity score [18] | drug sensitivity score [19] | normalised viability [20] | normalised viability [21] | normalised viability [22] | normalised viability ([23]; 10 nM) | normalised viability ([23]; 1000 nM) | normalised viability ([23]; 10000 nM) | normalised viability ([24]; 10 nM) | normalised viability ([24]; 1000 nM) | normalised viability ([24]; 10000 nM) | normalised viability ([25]; 10 nM) | normalised viability ([25]; 1000 nM) | normalised viability ([25]; 10000 nM)
1 | CNC(=O)c1ccc(N2C(=S)N(c3ccc(C#N)c(C(F)(F)F)c3)C(=O)C2(C)C)cc1F [Enzalutamide] | 0 | 0 | 0 | 0 | 6.69 | 0 | 0 | 0 | 0 | 0 | 0 | 0 | 0 | 0 | 0 | 0.159 | 0 | 0 | 0 |  |  |  |  |  |  |  |  |  |  |  | 
2 | Nc1cc(C(F)(F)F)c(-c2cc(N3CCOCC3)nc(N3CCOCC3)n2)cn1 [Buparlisib] | 3.23 | 7.05 | 2.39 | 0 | 7.02 | 0 | 1.54 | 1.75 | 0 | 3.29 | 6.14 | 1.39 | 9.62 | 3 | 0 | 0 | 6.3 | 10 | 0 |  |  |  |  |  |  |  |  |  |  |  | 
3 | Cc1cc(Nc2cc(CN3CCOCC3)c3nc(C)c(Cc4ccc(Cl)cc4F)n3n2)n[nH]1 [Gandotinib] | 6.22 | 6.71 | 3.77 | 0 | 9.68 | 4.82 | 0.384 | 2.62 | 0 | 1.28 | 5.01 | 6.39 | 3.4 | 7.43 | 4.83 | 0 | 9.64 | 5.57 | 3.64 |  |  |  |  |  |  |  |  |  |  |  | 
4 | CNC(=O)c1ccc(N2C(=S)N(c3ccc(C#N)c(C(F)(F)F)c3)C(=O)C23CCC3)cc1F [RD162] | 3.77e-05 | 0 | 0 | 0 | 0 | 0 | 0 | 0 | 0 | 0 | 0 | 0 | 0 | 0 | 0 | 0 | 0 | 0 | 0 |  |  |  |  |  |  |  |  |  |  |  | 
5 | CCn1c(-c2nonc2N)nc2cnc(Oc3cccc(NC(=O)c4ccc(OCCN5CCOCC5)cc4)c3)cc21 | 5.28 | 5.62 | 6.49 | 2.07 | 4.84 | 0 | 0.276 | 0 | 0 | 0 | 1.87 | 6.04 | 6.73 | 3.83 | 1.31 | 0 | 0 | 0 | 4.64 |  |  |  |  |  |  |  |  |  |  |  | 
6 | CCc1c2c(nc3ccc(OC(=O)N4CCC(N5CCCCC5)CC4)cc13)-c1cc3c(c(=O)n1C2)COC(=O)[C@]3(O)CC [Irinotecan] | 1.83 | 4 | 2.72 | 7.67 | 3.68 | 0 | 4.98 | 0 | 1.9 | 0 | 0 | 0 | 1.93 | 0 | 7.54 | 0 | 7.12 | 0 | 4.28 | 99.2% and 118% | 89.2% and 99.7% | 93.8% and 94.5% | 102% and 114% | 106% and 109% | 97.2% and 105% | 83.3% and 96.8% | 68.2% and 89.1% | 47.4% and 55.8% | 85.2% and 94.5% | 84.7% and 89.4% | 72.8% and 78.7%
7 | COC(=O)c1ccc2c(c1)NC(=O)/C2=C(\Nc1ccc(N(C)C(=O)CN2CCN(C)CC2)cc1)c1ccccc1 [Nintedanib] | 5.02 | 8.24 | 3.62 | 0 | 8.21 | 0 | 0 | 2.02 | 0 | 3.95 | 6.77 | 1.11 | 8.49 | 6.66 | 3.08 | 1.67 | 5.28 | 7.98 | 0 |  |  |  |  |  |  |  |  |  |  |  | 
8 | CNC(=O)c1cccc(-c2ccc3c(N4CCOC[C@@H]4C)nc(N4CCOC[C@@H]4C)nc3n2)c1 [AZD2014] | 8.78 | 15.3 | 14.9 | 13.8 | 17.4 | 13.2 | 7.74 | 12.7 | 0.92 | 9.48 | 14.8 | 11.4 | 10.3 | 8.36 | 11.1 | 13.5 | 11.4 | 15.7 | 18.4 |  |  |  |  |  |  |  |  |  |  |  | 

From the supplement of paper PMC4862054
